Test results from ChEMBL document CHEMBL1201862, “PubChem BioAssay data set” (2004).
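Test compounds were applied to cells in 96-well plates for 48 hours at 5 doses. Abbreviation: GI50, concentration required for 50% inhibition of growth.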 Active and inactive are the calls of the source. Cut-off read from the data, not from the text of the source: active = GI50 up to about 1.1 µM and inactive = higher.

Columns and labels:
Assay in all cases: NCI tumour cell line growth inhibition, 48 h
A498 = system: A498
786-0 = system: 786-0
SK-OV-3 = system: SK-OV-3
MDA-MB-435 = system: MDA-MB-435
SK-MEL-5 = system: SK-MEL-5
NCI-H460 = system: NCI-H460
NCI/ADR-RES = system: NCI/ADR-RES
UACC-257 = system: UACC-257
BT-549 = system: BT-549
SF-539 = system: SF-539
HT-29 = system: HT-29
CAKI-1 = system: CAKI-1
U-251 = system: U-251
SNB-75 = system: SNB-75
DU-145 = system: DU-145
LOX IMVI = system: LOX IMVI
OVCAR-3 = system: OVCAR-3
M14 = system: M14
TK-10 = system: TK-10
T47D = system: T47D
KM12 = system: KM12
COLO 205 = system: COLO 205
SNB-19 = system: SNB-19
Malme-3M = system: Malme-3M
NCI-H226 = system: NCI-H226
SR = system: SR
MDA-N = system: MDA-N
ACHN = system: ACHN
RXF 393 = system: RXF 393
HCT-15 = system: HCT-15
Hs-578T = system: Hs-578T
OVCAR-4 = system: OVCAR-4
MCF7 = system: MCF7
HCT-116 = system: HCT-116
HOP-62 = system: HOP-62
SK-MEL-2 = system: SK-MEL-2
PC-3 = system: PC-3
UACC-62 = system: UACC-62
A549 = system: A549
OVCAR-5 = system: OVCAR-5
SF-268 = system: SF-268
NCI-H23 = system: NCI-H23
CCRF-CEM = system: CCRF-CEM
IGROV-1 = system: IGROV-1
SN12C = system: SN12C
MOLT-4 = system: MOLT-4
EKVX = system: EKVX
OVCAR-8 = system: OVCAR-8
UO-31 = system: UO-31
SF-295 = system: SF-295
SW-620 = system: SW-620
RPMI-8226 = system: RPMI-8226
HOP-92 = system: HOP-92
HL-60 = system: HL-60
NCI-H522 = system: NCI-H522
HCC 2998 = system: HCC 2998
SK-MEL-28 = system: SK-MEL-28
K562 = system: K562
MDA-MB-231 = system: MDA-MB-231

COc1ccc(NC(=O)CSC(=O)c2ccccc2)c(SCCSSCCSc2cc(OC)ccc2NC(=O)CSC(=O)c2ccccc2)c1 was tested, and the GI50 (A498) was > 100 µM (inactive), the GI50 (786-0) was > 100 µM (inactive) and the GI50 (SK-OV-3) was 41.5 µM (inactive). The GI50 (MDA-MB-435) was > 100 µM (inactive), the GI50 (SK-MEL-5) was > 100 µM (inactive) and the GI50 (NCI-H460) was 4.62 µM (inactive). The GI50 (NCI/ADR-RES) was > 100 µM (inactive), the GI50 (UACC-257) was > 100 µM (inactive) and the GI50 (BT-549) was > 100 µM (inactive). For the same compound, the GI50 (SF-539) was > 100 µM (inactive), the GI50 (HT-29) was > 100 µM (inactive) and the GI50 (CAKI-1) was 18.2 µM (inactive). For the same compound, the GI50 (U-251) was > 100 µM (inactive), the GI50 (SNB-75) was > 100 µM (inactive) and the GI50 (DU-145) was > 100 µM (inactive). The GI50 (LOX IMVI) was 20.7 µM (inactive), the GI50 (OVCAR-3) was 9.57 µM (inactive) and the GI50 (M14) was 15.7 µM (inactive). The GI50 (TK-10) was > 100 µM (inactive), the GI50 (T47D) was 28.7 µM (inactive) and the GI50 (KM12) was 8.07 µM (inactive). For the same compound, the GI50 (COLO 205) was 11 µM (inactive), the GI50 (SNB-19) was > 100 µM (inactive) and the GI50 (Malme-3M) was 69.3 µM (inactive). The GI50 (NCI-H226) was > 100 µM (inactive), the GI50 (SR) was 3.75 µM (inactive) and the GI50 (MDA-N) was > 100 µM (inactive). For the same compound, the GI50 (ACHN) was > 100 µM (inactive), the GI50 (RXF 393) was > 100 µM (inactive) and the GI50 (HCT-15) was greater than 100 µM. For the same compound, the GI50 (Hs-578T) was > 100 µM (inactive), the GI50 (OVCAR-4) was 6.44 µM (inactive) and the GI50 (MCF7) was 66.5 µM (inactive). For the same compound, the GI50 (HCT-116) was 48.8 µM (inactive), the GI50 (HOP-62) was > 100 µM (inactive) and the GI50 (SK-MEL-2) was 27.9 µM (inactive). The GI50 (PC-3) was > 100 µM (inactive), the GI50 (UACC-62) was > 100 µM (inactive) and the GI50 (A549) was > 100 µM (inactive). The GI50 (OVCAR-5) was > 100 µM (inactive), the GI50 (SF-268) was 67.5 µM (inactive) and the GI50 (NCI-H23) was 73.3 µM (inactive). For the same compound, the GI50 (CCRF-CEM) was 79.6 µM (inactive), the GI50 (IGROV-1) was 67.5 µM (inactive) and the GI50 (SN12C) was > 100 µM (inactive). For the same compound, the GI50 (MOLT-4) was 3.5 µM (inactive), the GI50 (EKVX) was 72.9 µM (inactive) and the GI50 (OVCAR-8) was > 100 µM (inactive). The GI50 (UO-31) was 73.6 µM (inactive), the GI50 (SF-295) was > 100 µM (inactive) and the GI50 (SW-620) was > 100 µM (inactive). For the same compound, the GI50 (RPMI-8226) was > 100 µM (inactive), the GI50 (HOP-92) was 84.9 µM (inactive) and the GI50 (HL-60) was 4.22 µM (inactive). The GI50 (NCI-H522) was > 100 µM (inactive).
COc1cc(/C=N/n2c(Cc3ccc(Cl)cc3)n[nH]c2=O)cc(OC)c1OC was tested, and the GI50 (A498) was > 100 µM (inactive), the GI50 (786-0) was > 100 µM (inactive) and the GI50 (HCC 2998) was 37.7 µM (inactive). The GI50 (SK-OV-3) was > 100 µM (inactive), the GI50 (MDA-MB-435) was > 100 µM (inactive) and the GI50 (NCI-H460) was 33.5 µM (inactive). The GI50 (NCI/ADR-RES) was > 100 µM (inactive), the GI50 (UACC-257) was 37.5 µM (inactive) and the GI50 (BT-549) was > 100 µM (inactive). The GI50 (SF-539) was 44.8 µM (inactive), the GI50 (HT-29) was > 100 µM (inactive) and the GI50 (CAKI-1) was > 100 µM (inactive). For the same compound, the GI50 (U-251) was > 100 µM (inactive), the GI50 (SK-MEL-28) was > 100 µM (inactive) and the GI50 (SNB-75) was 65.2 µM (inactive). The GI50 (OVCAR-3) was 85.9 µM (inactive), the GI50 (M14) was > 100 µM (inactive) and the GI50 (T47D) was > 100 µM (inactive). For the same compound, the GI50 (KM12) was 50 µM (inactive), the GI50 (COLO 205) was > 100 µM (inactive) and the GI50 (SNB-19) was > 100 µM (inactive). The GI50 (K562) was > 100 µM (inactive), the GI50 (Malme-3M) was > 100 µM (inactive) and the GI50 (NCI-H226) was > 100 µM (inactive). For the same compound, the GI50 (MDA-N) was > 100 µM (inactive), the GI50 (ACHN) was > 100 µM (inactive) and the GI50 (RXF 393) was > 100 µM (inactive). For the same compound, the GI50 (HCT-15) was greater than 100 µM, the GI50 (Hs-578T) was 1.32 µM (inactive) and the GI50 (OVCAR-4) was > 100 µM (inactive). For the same compound, the GI50 (MCF7) was > 100 µM (inactive), the GI50 (HCT-116) was > 100 µM (inactive) and the GI50 (HOP-62) was 37.6 µM (inactive). For the same compound, the GI50 (SK-MEL-2) was > 100 µM (inactive), the GI50 (MDA-MB-231) was > 100 µM (inactive) and the GI50 (PC-3) was > 100 µM (inactive). The GI50 (UACC-62) was > 100 µM (inactive), the GI50 (A549) was > 100 µM (inactive) and the GI50 (OVCAR-5) was > 100 µM (inactive). For the same compound, the GI50 (SF-268) was 46.3 µM (inactive), the GI50 (NCI-H23) was > 100 µM (inactive) and the GI50 (CCRF-CEM) was > 100 µM (inactive). The GI50 (SN12C) was > 100 µM (inactive), the GI50 (MOLT-4) was > 100 µM (inactive) and the GI50 (EKVX) was > 100 µM (inactive). For the same compound, the GI50 (OVCAR-8) was 26.5 µM (inactive), the GI50 (UO-31) was > 100 µM (inactive) and the GI50 (SF-295) was > 100 µM (inactive). The GI50 (SW-620) was > 100 µM (inactive).
